≈ marks a conversion by molar mass, not a printed value.
Assays:
Fungi stains = experiment: Minimum fungicidal concentration (MFC), positive control, strain not stated; format: cell-based
Description: Minimum fungicidal concentration (MFC) was determined according to Zinsou et al., “Development of new dermatological formulations for the treatment of cutaneous candidiasis”, Scientific African (2020), 8:e00342. Different final concentrations (0.1 to 1 mg/mL) of the bark essential oils were dissolved in DEMO and added to liquid Sabouraud dextrose broth. From the above fungal stain suspension, 1 mL was added to each essential oil tube. The tubes were incubated at room temperature for three days. Negative and positive controls were made through the addition of an equivalent amount of DMSO and Ketoconazole, respectively. MFC was calculated through the determination of the lowest concentration of the essential oil, which could inhibit the growth of the fungus. Every concentration was repeated 5 times in three different experiments, and the mean and SD of inhibition zones were calculated for each fungal strain. The MIC was determined as the lowest concentration of essential oil that inhibited fungal growth after 48 h.

C. albicans = experiment: In vivo topical fungal infection of burn wounds in Wistar rats; settings: for percentage of fungicidal activity (wound fungal load): FIG. 5
Description: The development of in vivo topical fungal infection was determined according to Zinsou, A. et al., “Development of new dermatological formulations for the treatment of cutaneous candidiasis”, Scientific African (2020):8:e00342, and modified Ray and Wuepper, “Experimental Cutaneous Candidiasis in Rodents: II. Role of the Stratum Corneum Barrier and Serum Complement as a Mediator of a Protective Inflammatory Response”, Archives of Dermatology (1978), Vol. 114(4): 539-43. The experimental protocol was permitted by the Institutional Animal Care and Use Committee of King Faisal University (KFU-REC-2023-JAN-EA000691). All the experiments were executed in harmony with the relevant procedures and regulations of the Ethical Conduct for the Use of Animals in Research at King Faisal University. Wistar rats weighing (220±30 g) were used for the whole experiment. The animals' backs were shaved after anesthesia, and sterilized with 70% ethyl alcohol in water and left to dry. The injury was induced on the shaven back of each rat using a hot copper metal rod. The injury was swabbed with 0.5 mL broth containing […] Colony-Forming Units (CFU) of C. albicans. The essential oil topical preparations were applied once daily, starting from day 3, directly on the infected wound until the wound was completely healed (nearly 20 days). No antibiotic or antifungal preparations were administered to any of the animal groups, and the animals were monitored daily for any wound contamination. The animals' wounds were covered by sterile wound plaster, which is changed every day. […]
The animals' infected wounds (lesions) were monitored according to Masoko, et al., “In vivo antifungal effect of Combretum and Terminalia species extracts on cutaneous wound healing in immunosuppressed rats”, Pharm Biol (2010): 48:6:621-32, and Sullivan, et al., “Assessment of wound bioburden development in a rat acute wound model: Quantitative swab versus tissue biopsy”, Wounds (2004): 16: 115-123, using the following parameters: (1) Presence and type of exudate, erythema, swelling, ulceration, and crust formation: The scoring of the lesions regarding the exudate was measured using the following criteria: 0: No exudate, 1: Exudate just visible, 2: Exudate easily visible, 3: Substantial quantity of exudate, 4: Large quantity of exudate; (2) Wound contraction percentage: The lesion diameters were determined in millimeters (mm) vertically and horizontally. The lesion size percentage was calculated using the below equation: Wound contraction percentage=((Wound area day 0-Wound area day X)/Wound area day 0)×100, where X represents the number of days;
(3) Epithelialization time: The number of days needed for the wound Escher to fade away, leaving no visible wound, was used to determine the epithelialization period. (4) Evaluation of wound fungal load was determined according to Sullivan et al., supra: At the 3rd, 10th, and 15 days, each lesion was gently swabbed by a sterile swab 3 times anticlockwise with mild pressure. […] The plates were incubated for 48 hours at 37° C., and the number of yeasts on each plate was manually counted. […]

CC(=O)N1CCN(c2ccc(OCC3COC(Cn4ccnc4)(c4ccc(Cl)cc4Cl)O3)cc2)CC1 (stereo not drawn) [Ketoconazole]
MFC (Fungi stains): 0.037 mg/L (≈ 0.0696 µM)
reduction of wound exudate related to the non-treatment lesions (C. albicans; AUC of exudate score, FIG. 2B, topical once daily from day 3): 58%
reduction of epithelization time related to the untreated infected wound (C. albicans; FIG. 4): 42%
wound contraction percentage (C. albicans; by day 21, FIG. 3): 100%
percentage of fungicidal activity (wound fungal load) (C. albicans; day 5, related to the untreated-infected wound): 45.85%
percentage of fungicidal activity (wound fungal load) (C. albicans; day 15, related to the untreated-infected wound): 98.58%

Source: US11883450B1, “Extract of Agathis robusta as antifungal agent” (KING FAISAL UNIVERSITY, priority 2023, dated 2024)
